Test results published in BindingDB's records for doi:10.1021/jm970560h (Warner-Lambert, 1998).

Target: Sterol O-acyltransferase 1 (ACAT) (Mus musculus) (UniProt Q61263)
Assay: Inhibition of Acyl coenzyme A:cholesterol acyltransferase by cellular MAI2 assay

Chain of Sterol O-acyltransferase 1 (ACAT) (Mus musculus) (Q61263 whole entry, looked up): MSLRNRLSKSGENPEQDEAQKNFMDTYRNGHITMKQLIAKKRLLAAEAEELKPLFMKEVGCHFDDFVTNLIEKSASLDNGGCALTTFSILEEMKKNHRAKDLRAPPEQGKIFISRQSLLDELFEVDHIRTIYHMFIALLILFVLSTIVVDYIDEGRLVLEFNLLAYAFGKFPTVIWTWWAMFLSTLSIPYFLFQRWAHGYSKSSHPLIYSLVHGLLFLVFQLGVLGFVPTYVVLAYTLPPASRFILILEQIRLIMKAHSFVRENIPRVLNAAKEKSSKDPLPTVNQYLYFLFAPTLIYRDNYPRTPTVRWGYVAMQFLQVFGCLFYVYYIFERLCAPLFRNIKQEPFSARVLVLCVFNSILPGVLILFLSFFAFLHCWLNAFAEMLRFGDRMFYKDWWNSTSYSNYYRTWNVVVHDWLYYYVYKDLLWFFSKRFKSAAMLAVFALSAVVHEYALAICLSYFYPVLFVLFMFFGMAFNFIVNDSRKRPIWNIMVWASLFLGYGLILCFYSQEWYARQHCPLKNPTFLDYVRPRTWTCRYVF

IC50: 20 nM
Structure (SMILES): CCCCCCCCCCCCOC(=O)C(C(=O)Nc1c(C(C)C)cccc1C(C)C)c1ccccc1 (stereo unspecified) [N-(2,6-Diisopropyl-phenyl)-2-phenyl-malonamic acid dodecyl ester]
